Laboratory results taken from US8772276B2, “Alkyne benzotriazole derivatives” (Merck Sharp & Dohme Corp., priority 2011, dated 2014).

Target: T1, recombinant human mGluR2 (Homo sapiens, UniProt Q14416)
T1 construct: expressed in transfected cells
Assay: FLIPR Ca2+ mobilization assay, mGluR2 potentiation
Assay type: cell-based
Conditions: CHO dhfr- cells expressing human mGluR2 and Gα16, EC20 concentration of glutamate (900 nM)
Method: Potencies are determined as follows. The compounds of the present invention may be tested in a fluorescence laser imaging plate reader (FLIPR) based assay. This assay is a common functional assay to monitor Ca^2+ mobilization in whole cells expressing recombinant receptor coupled with a promiscuous G-protein. CHO dhfr-cells stably expressing recombinant human mGluR2 and Gα16 loaded with Fluo-4 AM (Invitrogen, Carlsbad Calif.) are treated with varying concentrations of compounds and the Ca^2+ response is monitored on a FLIPR384 (Molecular Devices, Sunnydale Calif.) for agonist activity. The potentiation response is monitored after a subsequent addition of an EC20 concentration of glutamate (900 nM). The maximum calcium response at each concentration of compound for agonism or potentiation are plotted as dose responses curves fitted with a four parameters logistic equation giving EC50 and Hill coefficient using the iterative non linear curve fitting software program.

T1 sequence (Q14416 19-872): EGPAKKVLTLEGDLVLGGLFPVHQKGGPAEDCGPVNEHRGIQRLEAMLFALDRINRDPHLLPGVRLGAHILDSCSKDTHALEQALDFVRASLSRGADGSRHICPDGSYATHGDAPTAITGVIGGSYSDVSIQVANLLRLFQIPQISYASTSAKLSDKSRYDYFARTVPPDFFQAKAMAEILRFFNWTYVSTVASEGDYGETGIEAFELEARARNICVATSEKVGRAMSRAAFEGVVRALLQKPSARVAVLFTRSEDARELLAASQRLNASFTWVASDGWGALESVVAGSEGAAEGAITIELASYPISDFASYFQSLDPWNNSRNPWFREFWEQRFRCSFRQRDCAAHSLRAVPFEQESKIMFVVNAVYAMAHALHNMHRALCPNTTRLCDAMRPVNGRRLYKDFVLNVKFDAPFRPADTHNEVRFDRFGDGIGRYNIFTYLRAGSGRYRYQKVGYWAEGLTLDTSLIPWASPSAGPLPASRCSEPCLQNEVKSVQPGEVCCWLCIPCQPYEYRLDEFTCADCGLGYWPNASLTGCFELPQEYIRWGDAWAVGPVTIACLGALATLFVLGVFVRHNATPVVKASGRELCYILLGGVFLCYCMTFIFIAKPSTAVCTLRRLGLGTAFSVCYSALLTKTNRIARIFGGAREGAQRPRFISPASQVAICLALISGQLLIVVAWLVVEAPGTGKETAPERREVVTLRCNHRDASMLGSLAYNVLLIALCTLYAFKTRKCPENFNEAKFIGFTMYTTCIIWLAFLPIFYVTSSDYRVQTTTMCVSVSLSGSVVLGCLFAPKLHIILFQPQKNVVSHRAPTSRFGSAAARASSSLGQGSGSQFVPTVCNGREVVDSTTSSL

| EC50 | Compound |
| --- | --- |
| 43 nM | Cc1cc(C#Cc2ccc3c(nnn3CC3CC3)c2Cl)ccn1 [Example 27, 4-chloro-1-(cyclopropylmethyl)-5-[(2-methylpyridin-4-yl)ethynyl]-1H-benzotriazole] |
| 292 nM | Clc1cncc(C#Cc2ccc3c(nnn3CC3CC3)c2Cl)c1 [Example 19, 4-chloro-5-[(5-chloropyridin-3-yl)ethynyl]-1-(cyclopropylmethyl)-1H-benzotriazole] |
| 42 nM | NC(=O)c1cncc(C#Cc2ccc3c(nnn3CC3CC3)c2Cl)c1 [Example 24, 5-{[4-chloro-1-(cyclopropylmethyl)-1H-benzotriazol-5-yl]ethynyl}pyridine-3-carboxamide] |
| 80 nM | Clc1c(C#Cc2cnccn2)ccc2c1nnn2CC1CC1 [Example 10, 4-chloro-1-(cyclopropylmethyl)-5-(pyrazin-2-ylethynyl)-1H-benzotriazole] |
| 64 nM | Clc1c(C#Cc2ccncc2)ccc2c1nnn2CC1CC1 [Example 8, 4-chloro-1-(cyclopropylmethyl)-5-(pyridin-4-ylethynyl)-1H-benzotriazole] |
| 57 nM | Cc1cncc(C#Cc2ccc3c(nnn3CC3CC3)c2Cl)c1 [Example 18, 4-chloro-1-(cyclopropylmethyl)-5-[(5-methylpyridin-3-yl)ethynyl]-1H-benzotriazole] |
| 123 nM | CC(C)(C)Cn1nnc2c(Br)c(C#CC3CCN(CC(F)(F)F)CC3)ccc21 [Example 5, 4-bromo-1-(2,2-dimethylpropyl)-5-{[1-(2,2,2-trifluoroethyl)piperidin-4-yl]ethynyl}-1H-benzotriazole] |
| 140 nM | Cc1ccc(C#Cc2ccc3c(nnn3CC3CC3)c2Cl)cn1 [Example 17, 4-chloro-1-(cyclopropylmethyl)-5-[(6-methylpyridin-3-yl)ethynyl]-1H-benzotriazole] |
| 153 nM | CN1C(=O)CN(CCCC#Cc2ccc3c(nnn3CC3CC3)c2Cl)C1=O [Example 32, 1-{5-[4-chloro-1-(cyclopropylmethyl)-1H-benzotriazol-5-yl]pent-4-yn-1-yl}-3-methylimidazolidine-2,4-dione] |
| 282 nM | C=CC#Cc1ccc2c(nnn2CC2CC2)c1Cl [Example 31, 5-but-3-en-1-yn-1-yl-4-chloro-1-(cyclopropylmethyl)-1H-benzotriazole] |
| 50 nM | COc1cncc(C#Cc2ccc3c(nnn3CC3CC3)c2Cl)c1 [Example 20, 4-chloro-1-(cyclopropylmethyl)-5-[(5-methoxypyridin-3-yl)ethynyl]-1H-benzotriazole] |

The next lines start with the compound.

| Compound | EC50 |
| --- | --- |
| CN1C(=O)CN(CC#Cc2ccc3c(nnn3CC3CC3)c2Cl)C1=O [Example 30, 1-{3-[4-Chloro-1-(cyclopropylmethyl)-1H-benzotriazol-5-yl]prop-2-yn-1-yl}-3-methylimidazolidine-2,4-dione] | 415 nM |
| OCc1cncc(C#Cc2ccc3c(nnn3CC3CC3)c2Cl)c1 [Example 22, (5-{[4-chloro-1-(cyclopropylmethyl)-1H-benzotriazol-5-yl]ethynyl}pyridin-3-yl)methanol] | 57 nM |
| FC1(C#Cc2ccc3c(nnn3CC3CC3)c2Br)CCNCC1 [Example 4, 4-bromo-1-(cyclopropylmethyl)-5-[(4-fluoropiperidin-4-yl)ethynyl]-1H-benzotriazole] | 1220 nM |
| Cc1ccncc1C#Cc1ccc2c(nnn2CC2CC2)c1Cl [Example 6, 4-Chloro-1-(cyclopropylmethyl)-5-[(4-methylpyridin-3-yl)ethynyl]-1H-benzotriazole] | 50 nM |
| COc1cc(C#Cc2ccc3c(nnn3CC3CC3)c2Cl)ccn1 [Example 28, 4-chloro-1-(cyclopropylmethyl)-5-[(2-methoxypyridin-4-yl)ethynyl]-1H-benzotriazole] | 227 nM |
| Clc1c(C#Cc2ccnnc2)ccc2c1nnn2CC1CC1 [Example 11, 4-chloro-1-(cyclopropylmethyl)-5-(pyridazin-4-ylethynyl)-1H-benzotriazole] | 203 nM |
| O=Cc1cncc(C#Cc2ccc3c(nnn3CC3CC3)c2Cl)c1 [Example 15, 5-{[4-chloro-1-(cyclopropylmethyl)-1H-benzotriazol-5-yl]ethynyl}pyridine-3-carbaldehyde] | 56 nM |
| CC(C)(C)Cn1nnc2c(Br)c(C#CC3CCN(C(=O)OC(C)(C)C)CC3)ccc21 [Example 1, tert-Butyl 4-{[4-bromo-1-(2,2-dimethylpropyl)-1H-benzotriazol-5-yl]ethynyl}piperidine-1-carboxylate] | 100 nM |
| Fc1cncc(C#Cc2ccc3c(nnn3CC3CC3)c2Cl)c1 [Example 21, 4-chloro-1-(cyclopropylmethyl)-5-[(5-fluoropyridin-3-yl)ethynyl]-1H-benzotriazole] | 76 nM |
| Nc1cc(C#Cc2ccc3c(nnn3CC3CC3)c2Cl)ccn1 [Example 29, 4-{[4-chloro-1-(cyclopropylmethyl)-1H-benzotriazol-5-yl]ethynyl}pyridin-2-amine] | 31 nM |
| Cc1ncccc1C#Cc1ccc2c(nnn2CC2CC2)c1Cl [Example 16, 4-chloro-1-(cyclopropylmethyl)-5-[(2-methylpyridin-3-yl)ethynyl]-1H-benzotriazole] | 50 nM |
| FC(F)(F)c1c(C#Cc2cccnc2)ccc2c1nnn2CC1CC1 [Example 33, 1-(Cyclopropylmethyl)-5-(pyridin-3-ylethynyl)-4-(trifluoromethyl)-1H-benzotriazole] | 4.8 nM |
| CC(C)(C)OC(=O)N1CCC(F)(C#Cc2ccc3c(nnn3CC3CC3)c2Br)CC1 [Example 3] | 414 nM |
| OCC#Cc1ccc2c(nnn2CC2CC2)c1Cl [Example 13, 3-[4-chloro-1-(cyclopropylmethyl)-1H-benzotriazol-5-yl]prop-2-yn-1-ol] | 576 nM |
| Clc1c(C#Cc2ccccn2)ccc2c1nnn2CC1CC1 [Example 9, 4-chloro-1-(cyclopropylmethyl)-5-(pyridin-2-ylethynyl)-1H-benzotriazole] | 85 nM |
| Clc1c(C#Cc2cccnc2)ccc2c1nnn2CC1CC1 [Example 7, 4-chloro-1-(cyclopropylmethyl)-5-(pyridin-3-ylethynyl)-1H-benzotriazole] | 34 nM |
| Nc1cncc(C#Cc2ccc3c(nnn3CC3CC3)c2Cl)c1 [Example 23, 5-{[4-chloro-1-(cyclopropylmethyl)-1H-benzotriazol-5-yl]ethynyl}pyridin-3-amine] | 98 nM |
| OCCCC#Cc1ccc2c(nnn2CC2CC2)c1Cl [Example 14, 5-[4-chloro-1-(cyclopropylmethyl)-1H-benzotriazol-5-yl]pent-4-yn-1-ol] | 180 nM |
| Fc1cc(C#Cc2ccc3c(nnn3CC3CC3)c2Cl)ccn1 [Example 25, 4-chloro-1-(cyclopropylmethyl)-5-[(2-fluoropyridin-4-yl)ethynyl]-1H-benzotriazole] | 77 nM |
| CC(C)(C)Cn1nnc2c(Br)c(C#CC3CCNCC3)ccc21 [Example 2, 4-bromo-1-(2,2-dimethylpropyl)-5-(piperidin-4-ylethynyl)-1H-benzotriazole] | 2710 nM |
| FC(F)(F)c1c(C#Cc2ccccc2)ccc2c1nnn2CC1CC1 [Example 34, 1-(cyclopropylmethyl)-5-(phenylethynyl)-4-(trifluoromethyl)-1H-benzotriazole] | 34 nM |
| Clc1cc(C#Cc2ccc3c(nnn3CC3CC3)c2Cl)ccn1 [Example 26, 4-chloro-5-[(2-chloropyridin-4-yl)ethynyl]-1-(cyclopropylmethyl)-1H-benzotriazole] | 299 nM |
| FC(F)(F)c1c(C#Cc2ccncc2)ccc2c1nnn2CC1CC1 [Example 35, 1-(cyclopropylmethyl)-5-(pyridin-4-ylethynyl)-4-(trifluoromethyl)-1H-benzotriazole] | 12 nM |
| OCCC#Cc1ccc2c(nnn2CC2CC2)c1Cl [Example 12, 4-[4-chloro-1-(cyclopropylmethyl)-1H-benzotriazol-5-yl]but-3-yn-1-ol] | 388 nM |
